Experimental data: PubChem BioAssay (NCI)
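Interpolation was linear, between the two tested concentrations surrounding the appropriate level; five concentrations were tested over 48 hours in 96-well plates. At the GI50, growth is halved. TGI denotes the concentration required for complete inhibition of growth.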

Key:
Experiment in all cases: NCI anticancer screen, dose series, 48 h
RXF 393 renal = system: RXF 393 renal
SW-620 colon = system: SW-620 colon
SNB-19 CNS = system: SNB-19 CNS
SK-MEL-5 melanoma = system: SK-MEL-5 melanoma
SNB-75 CNS = system: SNB-75 CNS
M14 melanoma = system: M14 melanoma
SK-MEL-2 melanoma = system: SK-MEL-2 melanoma
CAKI-1 renal = system: CAKI-1 renal
MDA-N = system: MDA-N

Compound | TGI (RXF 393 renal) | TGI (SW-620 colon) | TGI (SNB-19 CNS) | TGI (SK-MEL-5 melanoma) | TGI (SNB-75 CNS) | TGI (M14 melanoma) | TGI (SK-MEL-2 melanoma) | TGI (CAKI-1 renal) | TGI (MDA-N) | GI50 (SNB-75 CNS) | GI50 (M14 melanoma) | GI50 (SK-MEL-2 melanoma) | GI50 (RXF 393 renal) | GI50 (SW-620 colon) | GI50 (CAKI-1 renal) | GI50 (SNB-19 CNS) | GI50 (SK-MEL-5 melanoma)
COC(=O)N[C@H](C(=O)O)C(C)O[Si](C)(C)C(C)(C)C (some centres undefined) | > 100 µM | > 100 µM | > 100 µM | > 100 µM | – | – | – | – | – | – | – | – | – | – | – | – | –
NCC(O)CNC(=O)c1ccc(-c2ccc(-c3ccc(C(=O)NCC(O)CN)cc3)o2)cc1 (centres undefined) | 40.1 µM | > 100 µM | 46.2 µM | > 100 µM | 49.5 µM | > 100 µM | > 100 µM | > 100 µM | > 100 µM | – | – | – | – | – | – | – | –
COc1ccccc1NC(=O)CC(=O)N1N=C(N2c3ccccc3Sc3ccccc32)CC1c1ccccc1 (centres undefined) | > 100 µM | > 100 µM | > 100 µM | > 100 µM | > 100 µM | > 100 µM | > 100 µM | > 100 µM | – | – | – | – | – | – | – | – | –
COC(=O)c1c(O)ccc2[nH]c3c(O)c4ccccc4cc3c12 | > 100 µM | – | > 100 µM | > 100 µM | – | 67.4 µM | 55 µM | 45.9 µM | 65 µM | – | – | – | – | – | – | – | –
CCCCCCCCCCCCCCCCOP(=O)(O)OCC(N)C(=O)O (centres undefined) | 55 µM | 38.6 µM | 35.9 µM | 32.6 µM | 45.7 µM | 46.5 µM | 40.5 µM | 28 µM | 43.1 µM | – | – | – | – | – | – | – | –
C=C1CC(Cn2ccc(=O)[nH]c2=O)(c2ccc(Cl)cc2)OC1=O (centres undefined) | – | 4.31 µM | > 71.1 µM | 10.8 µM | 30.9 µM | 12.9 µM | 22.5 µM | 6.77 µM | 17.1 µM | – | – | – | – | – | – | – | –
S=c1[nH]n2c(CCCCCCCCc3nnc4sc(=S)[nH]n34)nnc2s1 | – | > 100 µM | > 100 µM | – | > 100 µM | > 100 µM | > 100 µM | > 100 µM | > 100 µM | – | – | – | – | – | – | – | –
CC(=O)Oc1c2c(c3n(c1=O)CCCC3)C(=O)N(c1ccccc1)C2=O | > 100 µM | > 100 µM | > 100 µM | > 100 µM | > 100 µM | > 100 µM | > 100 µM | > 100 µM | > 100 µM | – | – | – | – | – | – | – | –
O=c1ccn(C2OC(CO)C(O)C2F)c(=O)n1Cc1ccccc1 (centres undefined) | > 100 µM | > 100 µM | > 100 µM | > 100 µM | > 100 µM | – | – | > 100 µM | > 100 µM | – | – | – | – | – | – | – | –
COc1ccc2c3c([nH]c2c1)CCN(CCCC(=O)c1ccc(F)cc1)C3 | 28.5 µM | 32.8 µM | 28.2 µM | 26 µM | 24.8 µM | 28.9 µM | 32 µM | 31.8 µM | 35.1 µM | – | – | – | – | – | – | – | –
O=C1CC[C@@]2(O)[C@H]3Cc4ccc(-c5ccccc5)c5c4[C@@]2(CCN3CC2CC2)[C@H]1O5 | 23.7 µM | 25 µM | 59.6 µM | 28.6 µM | – | 34 µM | 33.7 µM | 36.7 µM | 32.9 µM | – | – | – | – | – | – | – | –
CC(O)(P(=O)(O)O)P(=O)(O)OCC(O)CN1CCOCC1 (centres undefined) | > 100 µM | > 100 µM | > 100 µM | – | – | > 100 µM | – | > 100 µM | > 100 µM | – | – | – | – | – | – | – | –
C/C=C1\CN(C(=O)OC(C)(C)C)C1C(=O)OC(C)(C)C (centres undefined) | – | > 100 µM | > 100 µM | > 100 µM | – | > 100 µM | > 100 µM | > 100 µM | > 100 µM | – | – | – | – | – | – | – | –
O=C(O)c1cnc(-n2[nH]c3c(c2=O)CCCC3)[nH]c1=O | – | > 100 µM | > 100 µM | > 100 µM | – | > 100 µM | > 100 µM | > 100 µM | > 100 µM | – | – | – | – | – | – | – | –
CC(C)=CCc1[nH]c2ccccc2c1C1=C(O)C(=O)C(c2c(CC=C(C)C)[nH]c3ccccc23)=C(O)C1=O | 8.17 µM | 14.9 µM | 16.4 µM | 4.12 µM | 4.14 µM | 15.6 µM | 3.95 µM | 6.26 µM | 11.5 µM | – | – | – | – | – | – | – | –
O=C(N/N=C\c1ccc(N(CCCl)CCCl)cc1[N+](=O)[O-])c1cccnc1 | > 100 µM | > 100 µM | > 100 µM | > 100 µM | > 100 µM | > 100 µM | > 100 µM | > 100 µM | – | > 100 µM | > 100 µM | > 100 µM | > 100 µM | > 100 µM | > 100 µM | > 100 µM | > 100 µM
Clc1cccc(NN=Nc2ccc(-c3nc4ccccc4s3)cc2)c1 | 82.8 µM | > 100 µM | > 100 µM | 74.9 µM | 66.1 µM | > 100 µM | 48.1 µM | > 100 µM | 80.1 µM | – | – | – | – | – | – | – | –
CCN(CC)CCN1C(=O)c2c(c3c4ccccc4[nH]c3c3ccc4ccccc4c23)C1=O | 2.83 µM | 2.97 µM | 2.88 µM | 3.12 µM | 2.4 µM | – | 6.5 µM | 2.87 µM | – | 1.17 µM | – | 2.51 µM | 1.42 µM | 1.31 µM | 1.43 µM | 1.5 µM | 1.71 µM
Cc1sc2c(c1C)/C(=N\O)c1cccn1-2 | 65.5 µM | > 100 µM | 63.2 µM | > 100 µM | 41.1 µM | > 100 µM | > 100 µM | > 100 µM | > 100 µM | – | – | – | – | – | – | – | –
Cn1c(CO)ccc1-c1ccc(-c2ccc[se]2)[se]1 | 26.4 µM | 77.8 µM | > 100 µM | > 90.2 µM | 37.2 µM | > 100 µM | > 100 µM | – | > 61.5 µM | – | – | – | – | – | – | – | –
CCCCCCCCCCCCCCC(O)C[N+](C)(CCO)CCO (centres undefined) | 4.36 µM | 23.7 µM | 3.39 µM | 16.9 µM | 2.85 µM | 3.66 µM | 27.5 µM | 9.59 µM | 22.8 µM | – | – | – | – | – | – | – | –
CCOC(=O)c1nc2ccc(C(F)(F)F)cc2nc1Nc1ccc(Cl)c(Cl)c1 | > 100 µM | > 100 µM | 95.7 µM | > 100 µM | > 100 µM | > 100 µM | – | > 100 µM | > 100 µM | – | – | – | – | – | – | – | –
C=C1C(O)C[C@H](OC(C)=O)[C@]2(C)C1C(OC(C)=O)[C@]1(C(C)(C)O)CC(O)C(C)=C1[C@@H](OC(=O)c1ccccc1)C2OC(C)=O (some centres undefined) | > 10 µM | > 10 µM | > 10 µM | > 10 µM | > 10 µM | > 10 µM | > 10 µM | > 10 µM | > 10 µM | – | – | – | – | – | – | – | –
COc1cc2c(c(O)c1OC)CC1CCC(=O)N1C2c1cccc2ccccc12 (centres undefined) | – | 73 µM | 45 µM | 26.2 µM | > 100 µM | 33.8 µM | 34.9 µM | 47.1 µM | 31.7 µM | – | – | – | – | – | – | – | –
